Experimental data as given in patent US8192962B2, “Processes for detecting toxic substances” (Daikin Industries, Ltd., priority 2001, dated 2012).

Tested on: Genes belonging to other category
Experiment: DNA chip mRNA expression in yeast, genes belonging to other category (Table 9)
Assay type: cell-based, Saccharomyces cerevisiae S288C
Experimental: Yeast (Saccharomyces cerevisiae S288C (α SUC2mal mel gap2 CUP1)) were incubated at 25° C. on YPD medium (yeast extract 1%, polypepton 2%, glucose 2%). One of toxic chemical substances was added to the cells at logarithmic growth phase, and the cells were further incubated for two hours. Cells were cultured without any chemical substance in the same condition, and were used as control. Concentrations of the chemical substances were defined to inhibit the growth of the yeast but not lead to death.
After completion of the incubation, the culture was centrifuged to collect the cells. To the cells, sodium acetate buffer (50 mM sodium acetate, 10 mM EDTA, 1% SDS) was added, and the mixture was shaken at 65° C. for five minutes, followed by returning to room temperature, and obtaining the supernatant, of which the procedures were repeated two times. To the supernatant, ½ amount of a solution of phenol/chloroform was added, and the mixture was centrifuged to give a supernatant, which was added with an equal amount of chloroform, and the mixture was centrifuged to give a supernatant. To the supernatant, an equal amount of isopropanol containing 0.3 M sodium acetate was added, and the mixture was allowed to stand at room temperature for 30 minutes, after which the mixture was centrifuged to give a sediment of the whole RNAs. Seventy % ethanol was added to the sediment, and the mixture was again centrifuged to give a sediment, which was then dried and dissolved in water. mRNA was isolated from the whole RNAs as followings. In view of the fact that a poly A chain is attached to the 3′ terminus of mRNA, a polynucleotide having a poly T structure which was immobilized on the surface of latex beads was used to trap the mRNA, and then the mRNA was washed and eluted with spine column (Oligotex-dT30<Super>mRNA Purification Kit, Takara). Reverse transcription of the mRNA was conducted with a reverse transcriptase (Super Script II Reverse Transcriptase; catalogue No. 18064-014, GibcoBRL) using fluorescence-labeled nucleotides to give cDNAs that were introduced with Cy3-dUTP or Cy5-dUTP during the reverse transcription.
The labeled cDNAs were dissolved in TE buffer (10mM Tris-HCl/1 mM EDTA, pH8.0), and the solution was dropped on the DNA chip containing the whole genes of yeast (DNA Chip Research Inc. Japan) so that the cDNAs were hybridized on the DNA chip at 65° C. for over 12 hours. The fluoresces intensity of the DNA chip was read with a scanner, and the ratio relative to the fluorescence intensity resulting from the absence of chemical substance was estimated as the following, which is shown in Tables 1 to 9: […]

CCCCC[C@H](O)CC(=O)CCc1ccc(O)c(OC)c1 [(13), gingerol]
The level of expressed mRNA in the presence of chemical substance/The level of expressed mRNA in the absence of chemical substance (yeast gene YKL041W): 1.3 | The level of expressed mRNA in the presence of chemical substance/The level of expressed mRNA in the absence of chemical substance (yeast gene YKL096W): 0.1 | The level of expressed mRNA in the presence of chemical substance/The level of expressed mRNA in the absence of chemical substance (yeast gene YKL139W): 1.6 | The level of expressed mRNA in the presence of chemical substance/The level of expressed mRNA in the absence of chemical substance (yeast gene YKL165C): 3.2 | The level of expressed mRNA in the presence of chemical substance/The level of expressed mRNA in the absence of chemical substance (yeast gene YKL190W): 1.3 | The level of expressed mRNA in the presence of chemical substance/The level of expressed mRNA in the absence of chemical substance (yeast gene YKL193C): 2.1 | The level of expressed mRNA in the presence of chemical substance/The level of expressed mRNA in the absence of chemical substance (yeast gene YKR014C): 1.5 | The level of expressed mRNA in the presence of chemical substance/The level of expressed mRNA in the absence of chemical substance (yeast gene YLL051C): 1.3 | The level of expressed mRNA in the presence of chemical substance/The level of expressed mRNA in the absence of chemical substance (yeast gene YLR090W): 1.7 | The level of expressed mRNA in the presence of chemical substance/The level of expressed mRNA in the absence of chemical substance (yeast gene YLR093C): 1.3 | The level of expressed mRNA in the presence of chemical substance/The level of expressed mRNA in the absence of chemical substance (yeast gene YLR120C): 4.8 | The level of expressed mRNA in the presence of chemical substance/The level of expressed mRNA in the absence of chemical substance (yeast gene YLR136C): 2.9 | The level of expressed mRNA in the presence of chemical substance/The level of expressed mRNA in the absence of chemical substance (yeast gene YLR250W): 1.2 | The level of expressed mRNA in the presence of chemical substance/The level of expressed mRNA in the absence of chemical substance (yeast gene YLR251W): 1.7 | The level of expressed mRNA in the presence of chemical substance/The level of expressed mRNA in the absence of chemical substance (yeast gene YLR327C): 2.8 | The level of expressed mRNA in the presence of chemical substance/The level of expressed mRNA in the absence of chemical substance (yeast gene YMR004W): 2.2 | The level of expressed mRNA in the presence of chemical substance/The level of expressed mRNA in the absence of chemical substance (yeast gene YMR051C): 1.3 | The level of expressed mRNA in the presence of chemical substance/The level of expressed mRNA in the absence of chemical substance (yeast gene YMR104C): 1.5 | The level of expressed mRNA in the presence of chemical substance/The level of expressed mRNA in the absence of chemical substance (yeast gene YMR139W): 1.6 | The level of expressed mRNA in the presence of chemical substance/The level of expressed mRNA in the absence of chemical substance (yeast gene YMR219W): 2.1 | The level of expressed mRNA in the presence of chemical substance/The level of expressed mRNA in the absence of chemical substance (yeast gene YMR226C): 1.6 | The level of expressed mRNA in the presence of chemical substance/The level of expressed mRNA in the absence of chemical substance (yeast gene YMR262W): 1.7 | The level of expressed mRNA in the presence of chemical substance/The level of expressed mRNA in the absence of chemical substance (yeast gene YMR275C): 2.1 | The level of expressed mRNA in the presence of chemical substance/The level of expressed mRNA in the absence of chemical substance (yeast gene YMR276W): 1.9 | The level of expressed mRNA in the presence of chemical substance/The level of expressed mRNA in the absence of chemical substance (yeast gene YMR314W): 2.6 | The level of expressed mRNA in the presence of chemical substance/The level of expressed mRNA in the absence of chemical substance (yeast gene YNL006W): 2.3 | The level of expressed mRNA in the presence of chemical substance/The level of expressed mRNA in the absence of chemical substance (yeast gene YNL007C): 2.1 | The level of expressed mRNA in the presence of chemical substance/The level of expressed mRNA in the absence of chemical substance (yeast gene YNL093W): 2.2 | The level of expressed mRNA in the presence of chemical substance/The level of expressed mRNA in the absence of chemical substance (yeast gene YNL214W): 1.2 | The level of expressed mRNA in the presence of chemical substance/The level of expressed mRNA in the absence of chemical substance (yeast gene YNL223W): 2.0 | The level of expressed mRNA in the presence of chemical substance/The level of expressed mRNA in the absence of chemical substance (yeast gene YNL333W): 2.2 | The level of expressed mRNA in the presence of chemical substance/The level of expressed mRNA in the absence of chemical substance (yeast gene YNR007C): 1.5 | The level of expressed mRNA in the presence of chemical substance/The level of expressed mRNA in the absence of chemical substance (yeast gene YNR010W): 2.8 | The level of expressed mRNA in the presence of chemical substance/The level of expressed mRNA in the absence of chemical substance (yeast gene YNR035C): 1.7 | The level of expressed mRNA in the presence of chemical substance/The level of expressed mRNA in the absence of chemical substance (yeast gene YOL013C): 1.8 | The level of expressed mRNA in the presence of chemical substance/The level of expressed mRNA in the absence of chemical substance (yeast gene YOL016C): 3.0 | The level of expressed mRNA in the presence of chemical substance/The level of expressed mRNA in the absence of chemical substance (yeast gene YOL104C): 0.6 | The level of expressed mRNA in the presence of chemical substance/The level of expressed mRNA in the absence of chemical substance (yeast gene YOR117W): 2.3 | The level of expressed mRNA in the presence of chemical substance/The level of expressed mRNA in the absence of chemical substance (yeast gene YOR149C): 1.3 | The level of expressed mRNA in the presence of chemical substance/The level of expressed mRNA in the absence of chemical substance (yeast gene YOR181W): 1.2 | The level of expressed mRNA in the presence of chemical substance/The level of expressed mRNA in the absence of chemical substance (yeast gene YOR185C): 2.2 | The level of expressed mRNA in the presence of chemical substance/The level of expressed mRNA in the absence of chemical substance (yeast gene YOR355W): 1.1 | The level of expressed mRNA in the presence of chemical substance/The level of expressed mRNA in the absence of chemical substance (yeast gene YOR381W): 1.7 | The level of expressed mRNA in the presence of chemical substance/The level of expressed mRNA in the absence of chemical substance (yeast gene YOR383C): 1.2 | The level of expressed mRNA in the presence of chemical substance/The level of expressed mRNA in the absence of chemical substance (yeast gene YPL018W): 2.2 | The level of expressed mRNA in the presence of chemical substance/The level of expressed mRNA in the absence of chemical substance (yeast gene YPL089C): 1.3 | The level of expressed mRNA in the presence of chemical substance/The level of expressed mRNA in the absence of chemical substance (yeast gene YPL149W): 2.3 | The level of expressed mRNA in the presence of chemical substance/The level of expressed mRNA in the absence of chemical substance (yeast gene YPL203W): 1.5 | The level of expressed mRNA in the presence of chemical substance/The level of expressed mRNA in the absence of chemical substance (yeast gene YPL255W): 0.6 | The level of expressed mRNA in the presence of chemical substance/The level of expressed mRNA in the absence of chemical substance (yeast gene YPR108W): 2.6
